Reference: patent US6124328A, “Methods and compositions for stimulating neurite growth” (Vertex Pharmaceuticals Incorporated, priority 1997, dated 2000)

These molecules were tested against FKBP12 (Homo sapiens, UniProt P62942) (assay: FKBP12 Binding Assay: inhibition of FKBP rotomase activity (cis-N-succinyl-Ala-Ala-Pro-Phe-p-nitroanilide / chymotrypsin), apparent Ki). Details: Table 1a, formula Ia, compound 0.1 nM-10 μM.
Assay type: biochemical
Source text: Preferably, the assay measures inhibition of FKBP12 rotomase activity. Such an assay has also been described by M. W. Harding et al., supra and by J. J. Siekierka et al., supra. In this assay the isomerization of an artificial substrate--N-succinyl-Ala-Ala-Pro-Phe-p-nitroanilide--is followed spectrophotometrically. The assay includes the cis form of the substrate, FKBP12, the inhibitor and chymotrypsin. Chymotrypsin is able to cleave p-nitroanilide from the trans form of the substrate, but not the cis form. Release of p-nitroanilide is measured.
In this assay various quantities of FKBP12 binding compound (0.1 nM-10 μM) were added to cis-N-succinyl-Ala-Ala-Pro-Phe-p-nitroanilide in the presence of FKBP12 and chymotrypsin. FKBP12 converts the cis form of the substrate to the trans form. This allows chymotrypsin to cleave p-nitroanilide from the substrate. Release of p-nitroanilide was measured spectrophotometrically.

Chain of FKBP12 (P62942 whole entry): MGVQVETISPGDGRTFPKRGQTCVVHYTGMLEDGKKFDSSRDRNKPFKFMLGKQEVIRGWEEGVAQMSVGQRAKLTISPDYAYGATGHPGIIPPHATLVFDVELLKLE

| Ki [µM] | Compound |
| --- | --- |
| 0.09 | COc1cc(C(=O)C(=O)N2CCCC[C@H]2C(=O)OCCCC(C)C2CCCCC2)cc(OC)c1OC (some centres unmarked) |
| 26 | O=C(Cc1ccccc1[N+](=O)[O-])C(=O)N1CCCC[C@H]1C(=O)OCc1ccccc1 [Ia B=Benzyl, D=2-Nitrobenzyl, n=2] |

Same assay, conditions: Table 1c, formula Ic, compound 0.1 nM-10 μM

| Ki [µM] | Compound |
| --- | --- |
| > 1200 | CCOC(=O)CN(Cc1ccccc1)C(=O)C(=O)OC |

Same assay, conditions: Table 2, formula II', compound 0.1 nM-10 μM

| Ki [µM] | Compound |
| --- | --- |
| 0.062 | C=CCC(OC(=O)[C@@H]1CCCCN1C(=O)C(=O)c1cc(OC)c(OC)c(OC)c1)c1ccc(OCc2ccncc2)c(OCc2ccncc2)c1 (some centres unmarked) [compound 62] |
| 0.013 | COc1cc(C(=O)C(=O)N2CCCC[C@H]2C(=O)OC(c2cccnc2)c2cccc(OCc3ccncc3)c2)cc(OC)c1OC (some centres unmarked) [compound 63] |
| 0.0014 | COc1cc(C(=O)C(=O)N2CCCC[C@H]2C(=O)OC(CCCc2ccccc2)c2cccc(OCc3ccncc3)c2)cc(OC)c1OC (some centres unmarked) [compound 64] |
| 0.0041 | COc1cc(C(=O)C(=O)N2CCCC[C@H]2C(=O)OC(CCCc2ccccc2)c2ccc(OCc3ccncc3)c(OCc3ccncc3)c2)cc(OC)c1OC (some centres unmarked) [compound 65] |
| 0.035 | COc1cc(C(=O)C(=O)N2CCCC[C@H]2C(=O)OC(C)c2ccc(OCc3ccncc3)c(OCc3ccncc3)c2)cc(OC)c1OC (some centres unmarked) [compound 66] |
| 0.046 | COc1cc(C(=O)C(=O)N2CCCC[C@H]2C(=O)OC(CCCc2ccccc2)c2ccc(OCc3ccncc3)c(OCc3ccncc3)c2OCc2ccncc2)cc(OC)c1OC (some centres unmarked) [compound 67] |
| 0.002 | COc1cc(C(=O)C(=O)N2CCCC[C@H]2C(=O)OC(CCCc2ccccc2)c2ccc(OCc3ccncc3)c(C(=O)N3CCOCC3)c2)cc(OC)c1OC (some centres unmarked) [compound 68] |
| 0.036 | COc1cc(C(=O)C(=O)N2CCCC[C@H]2C(=O)OC(C)c2cc(OCc3ccncc3)c(OCc3ccncc3)c(OCc3ccncc3)c2)cc(OC)c1OC (some centres unmarked) [compound 69] |
| 0.005 | COc1cc(C(=O)C(=O)N2CCCC[C@H]2C(=O)OC(CCCc2ccccc2)c2cc(OCc3ccncc3)c(OCc3ccncc3)c(OCc3ccncc3)c2)cc(OC)c1OC (some centres unmarked) [compound 70] |
| 0.014 | COc1cc(C(=O)C(=O)N2CCCC[C@H]2C(=O)OC(C)c2cc(OCc3ccncc3)cc(OCc3ccncc3)c2)cc(OC)c1OC (some centres unmarked) [compound 71] |
| 0.012 | COc1cc(C(=O)C(=O)N2CCCC[C@H]2C(=O)OC(C)c2cc(OCc3ccncc3)cc(OCc3ccncc3)c2)cc(OC)c1OC (some centres unmarked) [compound 72] |
| 0.036 | COc1cc(C(=O)C(=O)N2CCCC[C@H]2C(=O)OC(C)c2cc(OCc3ccncc3)c(C)c(OCc3ccncc3)c2)cc(OC)c1OC (some centres unmarked) [compound 73] |
| 0.018 | CCC(OC(=O)[C@@H]1CCCCN1C(=O)C(=O)c1cc(OC)c(OC)c(OC)c1)c1cc(OCc2ccncc2)c(OCc2ccncc2)c(OCc2ccncc2)c1 (some centres unmarked) [compound 74] |
| 0.012 | CCC(OC(=O)[C@@H]1CCCCN1C(=O)C(=O)c1cc(OC)c(OC)c(OC)c1)c1cc(OCc2ccncc2)c(OCc2ccncc2)c(OCc2ccncc2)c1 (some centres unmarked) [compound 75] |
| 0.014 | C=CCC(OC(=O)[C@@H]1CCCCN1C(=O)C(=O)c1cc(OC)c(OC)c(OC)c1)c1cc(OCc2ccncc2)c(OCc2ccncc2)c(OCc2ccncc2)c1 (some centres unmarked) [compound 76] |
| 0.073 | C=CC(OC(=O)[C@@H]1CCCCN1C(=O)C(=O)c1cc(OC)c(OC)c(OC)c1)c1cc(OCc2ccncc2)c(OCc2ccncc2)c(OCc2ccncc2)c1 (some centres unmarked) [compound 78] |
| 0.0023 | C=CC(OC(=O)[C@@H]1CCCCN1C(=O)C(=O)c1cc(OC)c(OC)c(OC)c1)c1cc(OCc2ccncc2)c(OCc2ccncc2)c(OCc2ccncc2)c1 (some centres unmarked) [compound 79] |
| 0.017 | CCCC(OC(=O)[C@@H]1CCCCN1C(=O)C(=O)c1cc(OC)c(OC)c(OC)c1)c1cc(OCc2ccncc2)c(OCc2ccncc2)c(OCc2ccncc2)c1 (some centres unmarked) [compound 80] |
| 0.005 | CCCC(OC(=O)[C@@H]1CCCCN1C(=O)C(=O)c1cc(OC)c(OC)c(OC)c1)c1cc(OCc2ccncc2)c(OCc2ccncc2)c(OCc2ccncc2)c1 (some centres unmarked) [compound 81] |
| > 5 | COc1cc(C(=O)C(=O)N2CCCC[C@H]2C(=O)OC(C)c2cc(OCc3ccsc3)c(OCc3ccsc3)c(OCc3ccsc3)c2)cc(OC)c1OC (some centres unmarked) [compound 82] |
| > 1 | COc1cc(C(=O)C(=O)N2CCCC[C@H]2C(=O)OC(C)c2cc(OCc3ccsc3)c(OCc3ccsc3)c(OCc3ccsc3)c2)cc(OC)c1OC (some centres unmarked) [compound 83] |
| 0.054 | COc1cc(C(=O)C(=O)N2CCCC[C@H]2C(=O)OC(C)c2ccc(OCc3ccncc3)c(OCc3ccncc3)c2OC(C)C)cc(OC)c1OC (some centres unmarked) [compound 84] |
| 0.0035 | COc1cc(C(=O)C(=O)N2CCCC[C@H]2C(=O)OC(C)c2ccc(OCc3ccncc3)c(OCc3ccncc3)c2OC(C)C)cc(OC)c1OC (some centres unmarked) [compound 85] |
| 0.28 | COc1cc(C(=O)C(=O)N2CCC[C@H]2C(=O)OC(C)c2cc(OCc3ccncc3)c(OCc3ccncc3)c(OCc3ccncc3)c2)cc(OC)c1OC (some centres unmarked) [compound 86] |
| 0.36 | COc1cc(C(=O)C(=O)N2CCC[C@H]2C(=O)OC(C)c2cc(OCc3ccncc3)c(OCc3ccncc3)c(OCc3ccncc3)c2)cc(OC)c1OC (some centres unmarked) [compound 87] |
| 2.6 | COc1cc(C(=O)C(=O)N2CCCC[C@H]2C(=O)OC(C)c2cc(OCc3ccccc3)c(OCc3ccccc3)c(OCc3ccccc3)c2)cc(OC)c1OC (some centres unmarked) [compound 90] |

The next lines start with the molecule.

| Compound | Ki [µM] |
| --- | --- |
| COc1cc(C(=O)C(=O)N2CCCC[C@H]2C(=O)OC(c2ccccc2)c2cccc(Oc3ccccc3)c2)cc(OC)c1OC (some centres unmarked) [compound 5] | 4 |
| COc1ccc(CCC(CCCc2ccccc2)OC(=O)[C@@H]2CCCCN2C(=O)C(=O)c2cc(OC)c(OC)c(OC)c2)cc1 (some centres unmarked) [compound 13] | 0.0035 |
| COc1cc(C(=O)C(=O)N2CCCC[C@H]2C(=O)OC(CCCc2ccccc2)CCCn2cnc3ccccc32)cc(OC)c1OC (some centres unmarked) [compound 15] | 0.005 |
| COc1cc(C(=O)C(=O)N2CCCC[C@H]2C(=O)OC(CCCc2ccccc2)CCCc2ccccn2)cc(OC)c1OC (some centres unmarked) [compound 20] | 0.0065 |
| COc1cc(C(=O)C(=O)N2CCCC[C@H]2C(=O)OC(CCCc2ccccc2)CCCc2ccc[n+]([O-])c2)cc(OC)c1OC (some centres unmarked) [compound 22] | 0.007 |
| COc1cc(C(=O)C(=O)N2CCCC[C@H]2C(=O)OC(CCCc2ccccc2)CCCn2ccc3cccnc32)cc(OC)c1OC (some centres unmarked) [compound 23] | 0.009 |
| COc1cc(C(=O)C(=O)N2CCCC[C@H]2C(=O)OC(CCCc2ccccc2)CCCn2cnc3cncnc32)cc(OC)c1OC (some centres unmarked) [compound 25] | 0.0022 |
| COc1cc(C(=O)C(=O)N2CCCC[C@H]2C(=O)OC(CCCc2ccccc2)CCC(C)c2ccccc2)cc(OC)c1OC (some centres unmarked) [compound 32] | 0.02 |
| C=CCOc1ccccc1C(CCCc1ccccc1)OC(=O)[C@@H]1CCCCN1C(=O)C(=O)c1cc(OC)c(OC)c(OC)c1 (some centres unmarked) [compound 34] | 0.15 |
| COc1cc(C(=O)C(=O)N2CCCC[C@H]2C(=O)OC(CCCc2ccccc2)c2cccc(CO)c2)cc(OC)c1OC (some centres unmarked) [compound 37] | 0.0068 |
| COc1cc(C(=O)C(=O)N2CCCC[C@H]2C(=O)OC(CCCc2ccccc2)CCCc2ccc(C(=O)N(C)C)cc2)cc(OC)c1OC (some centres unmarked) [compound 43] | 0.005 |
| COc1cc(C(=O)C(=O)N2CCCC[C@H]2C(=O)OC(CCCc2ccccc2)CCCc2ccc(C(=O)N3CCOCC3)cc2)cc(OC)c1OC (some centres unmarked) [compound 44] | 0.006 |
| C=CCOCCCCC(CCCc1ccccc1)OC(=O)[C@@H]1CCCCN1C(=O)C(=O)c1cc(OC)c(OC)c(OC)c1 (some centres unmarked) [compound 45] | 0.007 |
| C=CCOCC#CC(CCCc1ccccc1)OC(=O)[C@@H]1CCCCN1C(=O)C(=O)c1cc(OC)c(OC)c(OC)c1 (some centres unmarked) [compound 46] | 0.005 |
| COc1cc(C(=O)C(=O)N2CCCC[C@H]2C(=O)OC(CCCc2ccccc2)CCCc2ccc(C(=O)N3CCCCC3)cc2)cc(OC)c1OC (some centres unmarked) [compound 47] | 0.007 |
| COc1cc(C(=O)C(=O)N2CCCC[C@H]2C(=O)OC(C)c2cc(OCc3ccccc3)cc(OCc3ccccc3)c2)cc(OC)c1OC (some centres unmarked) [compound 49] | 3.4 |
| C=CCOCCC(CCCc1ccccc1)OC(=O)[C@@H]1CCCCN1C(=O)C(=O)c1cc(OC)c(OC)c(OC)c1 (some centres unmarked) [compound 50] | 0.011 |
| C=CCOC/C=C/C(CCCc1ccccc1)OC(=O)[C@@H]1CCCCN1C(=O)C(=O)c1cc(OC)c(OC)c(OC)c1 (some centres unmarked) [compound 51] | 0.0028 |
| COc1cc(C(=O)C(=O)N2CCCC[C@H]2C(=O)OC(CCCc2ccccc2)CCCc2cccc(C(=O)N3CCOCC3)c2)cc(OC)c1OC (some centres unmarked) [compound 52] | 0.0015 |
| COc1cc(C(=O)C(=O)N2CCCC[C@H]2C(=O)OC(CCCc2ccccc2)CCCc2ccc(C(=O)NCc3ccccc3)cc2)cc(OC)c1OC (some centres unmarked) [compound 54] | 0.0016 |
| COc1cc(C(=O)C(=O)N2CCCC[C@H]2C(=O)OC(CCCc2ccccc2)CCCc2ccc(C(=O)N3CCSCC3)cc2)cc(OC)c1OC (some centres unmarked) [compound 55] | 0.0024 |
| COc1cc(C(=O)C(=O)N2CCCC[C@H]2C(=O)OC(CCCc2ccccc2)c2cccc(C(=O)N3CCOCC3)c2)cc(OC)c1OC (some centres unmarked) [compound 56] | 0.0061 |
| COc1cc(C(=O)C(=O)N2CCCC[C@H]2C(=O)OC(CCCc2ccccc2)CCCc2ccc(C(=O)N3CCN(C)CC3)cc2)cc(OC)c1OC (some centres unmarked) [compound 57] | 0.0056 |
| COc1cc(C(=O)C(=O)N2CCCC[C@H]2C(=O)OC(CCCc2ccccc2)CCCc2ccc(C(=O)N3CCN(Cc4ccccc4)CC3)cc2)cc(OC)c1OC (some centres unmarked) [compound 58] | 0.03 |
| COc1cc(C(=O)C(=O)N2CCCC[C@H]2C(=O)OC(CCCc2ccccc2)CCCc2cccc(C(=O)NCc3ccccc3)c2)cc(OC)c1OC (some centres unmarked) [compound 59] | 0.04 |
| COc1cc(C(=O)C(=O)N2CCCC[C@H]2C(=O)OC(CCCc2ccccc2)CCCc2ccc(C(=O)Nc3ccccn3)cc2)cc(OC)c1OC (some centres unmarked) [compound 60] | 0.002 |
| COc1cc(C(=O)C(=O)N2CCCC[C@H]2C(=O)OC(CCCc2cccnc2)c2cccnc2)cc(OC)c1OC (some centres unmarked) [compound 61] | 0.01 |
